Consider 25 compounds from PubChem BioAssay (NCI).

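Assay format: 96-well plates, 48-hour exposure. Here, GI50 denotes the concentration required for 50% inhibition of growth. The concentration for full growth arrest is given as TGI.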 Where a SMILES comes first, the peptide text is derived from it. The star is where a group is joined. Boc = CC(C)(C)OC(=O)*

The test system of the first assay is SW-620 colon. The assay can be described thus: growth of human tumour cells (NCI), 48 h.
As to `C(=N\NC1=NCCCN1)/c1ccc2ccccc2c1`, the TGI was found to be 28.4 µM.
On to `CCOC(=N)n1c(=O)n(C2=NCCN2)c2ccccc21`, for which the TGI was greater than 100 µM.
In turn, `O=C(NCCN1CCOCC1)c1ccc2cc(C(=O)N3CC(CCl)c4ccc([N+](=O)[O-])cc43)[nH]c2c1` (stereo unspecified) came in with a TGI greater than 100 µM.
Compound `Cc1csc(-c2cn(C)c3c2C(=O)C(N)=CC3=O)n1` registered a TGI greater than 100 µM.
Turning to `Nc1c(-c2cccc3ccccc23)c2ccc([N+](=O)[O-])cc2c(=O)n1-c1nc2ccccc2s1`, the TGI was greater than 100 µM.
In the case of `CC1CC[C@@]2(OC1)OC1C[C@H]3[C@@H]4CC[C@H]5CC(OC6OC(CO)C(OC7OC(CO)C(O)C(O)C7OC7OC(CO)C(O)C(O)C7O)C(O)C6O)CCC5(C)[C@H]4CCC3(C)C1[C@@H]2C` (stereo partly specified), the TGI worked out at 1.94 µM.
For the compound `C/C=C/C=C/c1nc(C#N)c(N)o1`, the TGI is greater than 100 µM.
`O=c1c2ccccc2nc2[nH][nH]c(=S)n12` registered a TGI greater than 100 µM.
The same measure, in the same setting: as for `CC(C)(C)OC(=O)NCC(=O)NCC(=O)NCC(=O)NCC(=O)O` (Boc-GGGG-OH), the figure is greater than 100 µM.
For the compound `COc1ccc(CC(O)CN2CCOCC2)cc1` (stereo unspecified), the TGI is greater than 100 µM.
In turn, `CC(C)COP(=O)(OCC(C)C)C(NS(=O)(=O)c1ccccc1)(C(F)(F)F)C(F)(F)F` gave a TGI of 41.6 µM.
For `CN(C)CCCN1C(=S)N(CCCN(C)C)c2c3cc(O)ccc3nc3c([N+](=O)[O-])ccc1c23`, the TGI is greater than 42 µM.
With `COc1cc(C2SCC(=O)N2c2ccc(NC(=O)c3ccc(N4C(=O)CSC4c4cc(OC)c(OC)c(OC)c4)cc3)cc2)cc(OC)c1OC` (stereo unspecified), the TGI was greater than 100 µM.

A further assay deals with LOX IMVI melanoma. The assay can be described thus: growth of human tumour cells (NCI), 48 h.
`c1ccc2sc(SCSc3nc4ccccc4s3)nc2c1`: the TGI is greater than 100 µM.
For the compound `O=c1oc(-c2ccc(O)c(O)c2)cc2cccc(O)c12`, the GI50 is 12.5 µM and the TGI turned out to be 37.2 µM.
In the case of `COc1cc2c(cc1-c1c(C)noc1C)cc(C)c(=O)n2Cc1ccccn1`, the GI50 was 0.884 µM and the TGI is 10.8 µM.
On to `CCOC(=O)c1c(-c2ccc(OC)cc2)c(C#N)c(=S)n(C2OC(COC(C)=O)C(OC(C)=O)C(OC(C)=O)C2OC(C)=O)c1C` (stereo unspecified), for which the TGI is greater than 100 µM.
As for `C1=CC2=CC=CC3c4nc5ccc6ccccc6c5nc4C(=C1)C23` (stereo unspecified), the TGI was greater than 100 µM.
The compound `O=c1cc(N=P(c2ccccc2)(c2ccccc2)c2ccccc2)n(-c2ccccc2)c(=O)n1-c1ccccc1` showed a TGI of 49.5 µM.
For the compound `O=C(NCCCN(CCCCN(CCCNC(=O)C(F)(F)F)Cc1ccccc1)Cc1ccccc1)C(F)(F)F`, the TGI turned out to be 21.3 µM.
`O=C(CCCN1CCC2(CC1)CC(=O)N(N1CCOCC1)C2=O)c1ccccc1` had a TGI greater than 100 µM.
For the compound `COc1ccc(C(OCC2OC(n3cc(C)c(=O)[nH]c3=O)CC2n2cc(Cn3cc(F)c(=O)[nH]c3=O)nn2)(c2ccccc2)c2ccccc2)cc1` (stereo unspecified), the TGI is greater than 100 µM.
For `C=CCn1c(=O)ccn(COCCO)c1=O`, the TGI was greater than 100 µM.
Same read-out and setting: as for `Oc1ccccc1/C=N/c1nc2cc3sc(/N=C/c4ccccc4O)nc3cc2s1`, the figure is greater than 100 µM.
The compound `CCCCC1c2c([nH]c3ccccc23)C2C(=O)N(c3ccc(OC)cc3)C(=O)C2C1CCC` (stereo unspecified) returned a TGI greater than 10 µM.
The compound `C(=N\NC1=NCCCN1)/c1ccc2ccccc2c1` returned a TGI of 21 µM.
`CCOC(=N)n1c(=O)n(C2=NCCN2)c2ccccc21`: the TGI is greater than 100 µM.
On to `O=C(NCCN1CCOCC1)c1ccc2cc(C(=O)N3CC(CCl)c4ccc([N+](=O)[O-])cc43)[nH]c2c1` (stereo unspecified), for which the TGI was greater than 100 µM.
The same measure, in the same setting: next, `Cc1csc(-c2cn(C)c3c2C(=O)C(N)=CC3=O)n1`: greater than 100 µM.
Consider `Nc1c(-c2cccc3ccccc23)c2ccc([N+](=O)[O-])cc2c(=O)n1-c1nc2ccccc2s1`, for which the TGI was greater than 35.5 µM.
As for `CC1CC[C@@]2(OC1)OC1C[C@H]3[C@@H]4CC[C@H]5CC(OC6OC(CO)C(OC7OC(CO)C(O)C(O)C7OC7OC(CO)C(O)C(O)C7O)C(O)C6O)CCC5(C)[C@H]4CCC3(C)C1[C@@H]2C` (stereo partly specified), the TGI came to 5.85 µM.
With `C/C=C/C=C/c1nc(C#N)c(N)o1`, the TGI was greater than 100 µM.
Consider `O=c1c2ccccc2nc2[nH][nH]c(=S)n12`, for which the TGI is greater than 100 µM.
Turning to `CC(C)(C)OC(=O)NCC(=O)NCC(=O)NCC(=O)NCC(=O)O` (Boc-GGGG-OH), the TGI was greater than 100 µM.
`COc1ccc(CC(O)CN2CCOCC2)cc1` (stereo unspecified): the TGI was greater than 100 µM.
Take `CC(C)COP(=O)(OCC(C)C)C(NS(=O)(=O)c1ccccc1)(C(F)(F)F)C(F)(F)F`: the TGI came out at 13.6 µM.
In turn, `CN(C)CCCN1C(=S)N(CCCN(C)C)c2c3cc(O)ccc3nc3c([N+](=O)[O-])ccc1c23` showed a TGI of 5.9 µM.
Turning to `COc1cc(C2SCC(=O)N2c2ccc(NC(=O)c3ccc(N4C(=O)CSC4c4cc(OC)c(OC)c(OC)c4)cc3)cc2)cc(OC)c1OC` (stereo unspecified), the TGI is greater than 100 µM.

For another assay, the system named is DU-145 prostate. The assay is described as follows: growth of human tumour cells (NCI), 48 h.
In the case of `c1ccc2sc(SCSc3nc4ccccc4s3)nc2c1`, the TGI was greater than 100 µM.
For `O=c1oc(-c2ccc(O)c(O)c2)cc2cccc(O)c12`, the TGI came out at 70.2 µM.
Regarding `COc1cc2c(cc1-c1c(C)noc1C)cc(C)c(=O)n2Cc1ccccn1`, the GI50 was 12.6 µM and the TGI was greater than 100 µM.
The compound `CCOC(=O)c1c(-c2ccc(OC)cc2)c(C#N)c(=S)n(C2OC(COC(C)=O)C(OC(C)=O)C(OC(C)=O)C2OC(C)=O)c1C` (stereo unspecified) returned a TGI greater than 100 µM.
Still for that read-out and setting: next, `C1=CC2=CC=CC3c4nc5ccc6ccccc6c5nc4C(=C1)C23` (stereo unspecified): greater than 100 µM; `O=c1cc(N=P(c2ccccc2)(c2ccccc2)c2ccccc2)n(-c2ccccc2)c(=O)n1-c1ccccc1`: greater than 100 µM.
`O=C(NCCCN(CCCCN(CCCNC(=O)C(F)(F)F)Cc1ccccc1)Cc1ccccc1)C(F)(F)F` came in with a TGI of 56.2 µM.
The compound `O=C(CCCN1CCC2(CC1)CC(=O)N(N1CCOCC1)C2=O)c1ccccc1` registered a TGI greater than 100 µM.
Regarding `COc1ccc(C(OCC2OC(n3cc(C)c(=O)[nH]c3=O)CC2n2cc(Cn3cc(F)c(=O)[nH]c3=O)nn2)(c2ccccc2)c2ccccc2)cc1` (stereo unspecified), the TGI was determined as 27.1 µM.
Same read-out and setting: next, `C=CCn1c(=O)ccn(COCCO)c1=O`: greater than 100 µM; `Oc1ccccc1/C=N/c1nc2cc3sc(/N=C/c4ccccc4O)nc3cc2s1`: greater than 100 µM; `CCCCC1c2c([nH]c3ccccc23)C2C(=O)N(c3ccc(OC)cc3)C(=O)C2C1CCC` (stereo unspecified): greater than 10 µM.
`C(=N\NC1=NCCCN1)/c1ccc2ccccc2c1` gave a TGI of 24.2 µM.
On to `CCOC(=N)n1c(=O)n(C2=NCCN2)c2ccccc21`, for which the TGI is greater than 100 µM.
With `O=C(NCCN1CCOCC1)c1ccc2cc(C(=O)N3CC(CCl)c4ccc([N+](=O)[O-])cc43)[nH]c2c1` (stereo unspecified), the TGI turned out to be 49.3 µM.
`Cc1csc(-c2cn(C)c3c2C(=O)C(N)=CC3=O)n1`: the TGI was greater than 100 µM.
On the same count and under the same terms, next, `Nc1c(-c2cccc3ccccc23)c2ccc([N+](=O)[O-])cc2c(=O)n1-c1nc2ccccc2s1`: greater than 100 µM; `CC1CC[C@@]2(OC1)OC1C[C@H]3[C@@H]4CC[C@H]5CC(OC6OC(CO)C(OC7OC(CO)C(O)C(O)C7OC7OC(CO)C(O)C(O)C7O)C(O)C6O)CCC5(C)[C@H]4CCC3(C)C1[C@@H]2C` (stereo partly specified): 1.81 µM; `C/C=C/C=C/c1nc(C#N)c(N)o1`: greater than 100 µM.
The compound `O=c1c2ccccc2nc2[nH][nH]c(=S)n12` came in with a TGI greater than 100 µM.
Still for that read-out and setting: next, `CC(C)(C)OC(=O)NCC(=O)NCC(=O)NCC(=O)NCC(=O)O` (Boc-GGGG-OH): greater than 100 µM; `COc1ccc(CC(O)CN2CCOCC2)cc1` (stereo unspecified): greater than 100 µM.
Take `CC(C)COP(=O)(OCC(C)C)C(NS(=O)(=O)c1ccccc1)(C(F)(F)F)C(F)(F)F`: the TGI amounted to 29.8 µM.
Compound `CN(C)CCCN1C(=S)N(CCCN(C)C)c2c3cc(O)ccc3nc3c([N+](=O)[O-])ccc1c23` displayed a TGI of 16.5 µM.
Compound `COc1cc(C2SCC(=O)N2c2ccc(NC(=O)c3ccc(N4C(=O)CSC4c4cc(OC)c(OC)c(OC)c4)cc3)cc2)cc(OC)c1OC` (stereo unspecified) yielded a TGI greater than 100 µM.
